Columns and labels:
[1] = test system: AR protein in CWR22R cells; assay: Western blot of AR protein levels; assay type: cell-based, human; conditions: 10 mM of hits for 36 hrs
Method: FIGS. 3A-3D depict data showing a that reduction of AR protein levels is associated with toxicity of the selected AR inhibitor hits to PCa cells. […] is a photographic representation of Western blotting of lysates from CWR22R cells treated with […] of the indicated hits for 36 hrs. […] GAPDH antibody was used to control for protein loading. FIG. 3B provides a graphical representation of data showing that, unlike parental CWR22R cells, a clone selected in the presence of c52 (c52R) is resistant to the effects of c52. AR protein expression in the c52R clone of CWR22R is not reduced by c52 treatment. Western blotting of parental and c52-resistant CWR22R cells with or without c52 treatment (10 μM for 36 hrs). FIG. 3C provides a graphical representation of data from analyzing cell viability by methylene blue staining 4 days after compound addition. Error bars—standard deviation between triplicates within experiment. FIG. 3D provides a graphical representation of data showing effects of the selected compounds on cell cycle distribution of CWR22R cells measured by propidium iodide staining of cellular DNA content by fluorescent activated cell sorting. Assay was done twice. Error bars—deviation between two measurements.
Western blot analysis. […] Total protein concentration was determined using Dc Protein Assay (BioRad, Hercules, Calif.). […]

[2] = test system: C4-2 tumors; assay: C4-2 xenograft model in nude mice; assay type: in vivo, mouse; conditions: 6 daily i.p. injections, 100xIC50 dose
Description: (§1) FIGS. 6A and 6B provide data showing anti-tumor activity of the selected hits in mouse models of androgen-independent PCa. FIG. 6A provides a graphical representation of data obtained from i.p. injection of the listed compounds or DMSO vehicle into nude mice carrying subcutaneous (s.c.) C4-2 tumors. Six daily injections were given starting when tumors were around 100 mm3 in size. There were 4-5 mice per group with two tumors per mouse. Asterisks (*) and number signs (#) are placed under the means of measurement in the c6 and c11 groups respectively which are statistically different from the control group by ANOVA test (>99%) B. C52 (9 mg/kg or 18 mg/kg) or DMSO vehicle was injected into the tail vein of nude mice carrying s.c. CWR22R tumors. Five daily injections were given starting when tumors were around 40 mm3 in size. There were 10 mice per group with one tumor per mouse. Asterisks (*) are placed under the means of measurement which are statistically different from the control group by ANOVA test (>99%). Error bars in both FIGS. 6A and B—standard deviation between the size of tumors within a given treatment group.
(§2) Testing of the anti-tumor effect of compounds in mice was done according to an IACUC-approved protocol in 8 week old male athymic nude mice from Harlan (Indianapolis, Ind.). For the C4-2 xenograft model, 10^6 C4-2 cells were injected subcutaneously (s.c.) in 2 sites of each mouse in 50% matrigel (BD Biosciences, Bradford, Mass.) in PBS. Upon development of visible tumors, they were measured using digital caliper. Tumor volume was calculated according to the formula: […]. Mice were injected with compounds i.p. daily for 6 days starting on the day when at least one tumor per mouse reached 100 mm^3 in size. Five mice per group were used. For the CWR22R xenograft model, CWR22R cells were inoculated (10^5 cells per inoculum) in 50% matrigel, one site per mouse. Treatment was started when the tumor grew to a size of at least 25 mm^3. Compounds were diluted in captisol (CyDex, Lenexa, Kans.) and delivered intravenously (to reduce “first pass” liver effect) once a day for 5 days. Ten mice per group were used. Mice were monitored daily and tumors were measured every other day. Mice were euthanized according to institutional regulations when the size of tumor reached 1000 mm^3. Comparison of the tumor growth in control and treated mice was done using ANOVA test.
We evaluated the potential anti-tumor effect of the hits using C4-2 and CWR22R xenograft models of androgen-independent PCa in nude mice. Groups of C4-2 tumor-bearing mice (4-5 mice per group, each with two tumors) were given 6 daily i.p. injections of compound (100×IC50 dose) or DMSO vehicle.

[3] = test system: CWR22R tumors; assay: CWR22R xenograft model in nude mice; assay type: in vivo, mouse; conditions: for CWR22R tumor growth: five daily i.v. injections, c52 at 18 mg/kg/day
Description: as §1, §2
ARTIK compounds, c52 and c85, were also tested in the CWR22R model.

[4] = Microsomal stability; assay type: in vitro ADME; conditions: 1 hour incubation with rat microsomes
Method: Five hit compounds, representing both the ARTIS and ARTIK categories (c6, c11, c17, c52 and c85), were selected for in vivo tests based on all of the previous assays. Compound c5 was rejected due to very low microsomal stability (<5% after 1 hour incubation with rat microsomes). The toxicity of the compounds was evaluated in a dose escalation assay in which male NIH Swiss mice (n=4) received three sequential intraperitoneal (i.p.) injections of each compound delivered in 3 day intervals. The first dose was 20-fold higher than the in vitro IC50 (20×IC50) for the compound in CWR22R cells recalculated based on mouse weight (see Example 1) and the second and third doses were 50×IC50 and 100×IC50, respectively. On the day after the last injection, half of the mice in each group were sacrificed for gross pathology examination and collection of blood for serum biochemistry assays, which include total protein, glucose, bilirubin, and creatinine levels, activity of liver enzymes, and ion concentrations. The remaining mice were sacrificed and evaluated similarly 7 days after the last compound injection. […] A minor decrease in serum glucose concentration (70-80% of control) was observed on the day after the last compound injection in almost all mice, but glucose levels were normal a week later (data not shown). […]

Question: Which results are given for `CCCn1c2ccccc2c2cc(C(C)=O)ccc21` [c52]?
Answer: AR protein level in CWR22R cells [1]: complete disappearance of AR protein; C4-2 tumor growth [2]: did not; C4-2 tumor growth ([2]; listed as C52): did not show in vivo efficacy; mice in which tumors completely disappeared ([3]; among 10 mice, 18 mg/kg/day): 2 mice; mice in which tumors did not grow in size ([3]; among 10 mice, 18 mg/kg/day): 5 mice; mice in which tumors regressed ([3]; among 10 mice, 18 mg/kg/day): 1 mouse; adverse side effects ([3]; c52 18 mg/kg/day i.v., 5 days): without any noticeable adverse side effects; CWR22R tumor growth ([3]; 18 mg/kg/day): suppressed growth; CWR22R tumor growth ([3]; listed as C52, 18 mg/kg/day): effective; microsomal stability, compound left [4]: 17%

From patent US8835447B2, “Method for treating androgen receptor positive cancers” (priority 2009, dated 2014)
